# Target: Aurora A (Homo sapiens (Human), UniProt O14965)
# Assay: Aurora A kinase inhibition (IC50)
# Format: biochemical
# Conditions: not given
# Chain of Aurora A (O14965 whole entry): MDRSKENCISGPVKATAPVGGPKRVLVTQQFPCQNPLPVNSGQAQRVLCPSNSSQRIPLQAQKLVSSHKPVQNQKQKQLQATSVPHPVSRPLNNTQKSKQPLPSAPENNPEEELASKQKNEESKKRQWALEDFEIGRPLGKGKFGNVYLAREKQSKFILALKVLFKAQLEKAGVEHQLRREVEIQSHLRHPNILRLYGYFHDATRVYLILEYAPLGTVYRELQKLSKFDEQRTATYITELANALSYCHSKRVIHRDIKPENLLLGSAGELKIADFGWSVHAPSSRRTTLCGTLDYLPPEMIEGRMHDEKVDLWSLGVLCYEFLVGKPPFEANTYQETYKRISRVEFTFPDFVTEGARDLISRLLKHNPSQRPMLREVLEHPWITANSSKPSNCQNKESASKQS
row,SMILES,IC50
1,"O=C(Nc1ccc(Nc2ccnc3[nH]c(=O)c4c(c23)CCCC4)cc1)c1ccccc1 [Compound 5, N-[4-(6-Oxo-5,6,7,8,9,10-hexahydrobenzo[c][1,8]naphthyridin-1-ylamino)-phenyl]-benzamide]",11 to 100 nM
2,"O=C(Nc1ccc(Nc2ccnc3[nH]c(=O)c4c(c23)CCCC4)cc1)c1ccc(F)cc1C(F)(F)F [Compound 6, 4-Fluoro-N-[4-(6-oxo-5,6,7,8,9,10-hexahydrobenzo[c][1,8]naphthyridin-1-ylamino)-phenyl]-2-trifluoromethyl-1-benzamide]",1 to 10 nM
3,"O=C(Nc1ccc(Nc2ccnc3[nH]c(=O)c4c(c23)CCCC4)cc1)c1cccc(F)c1F [Compound 7, 2,3-Difluoro-N-[4-(6-oxo-5,6,7,8,9,10-hexahydrobenzo[c][1,8]naphthyridin-1-ylamino)-phenyl]-1-benzamide]",1 to 10 nM
4,"O=C(Nc1ccc(Nc2ccnc3[nH]c(=O)c4c(c23)CCCC4)cc1)c1ccc(F)c(F)c1 [Compound 8, 3,4-Difluoro-N-[4-(6-oxo-5,6,7,8,9,10-hexahydrobenzo[c][1,8]naphthyridin-1-ylamino)-phenyl]-1-benzamide]",1 to 10 nM
5,"O=C(Nc1ccc(Nc2ccnc3[nH]c(=O)c4c(c23)CCCC4)cc1)c1cc(F)cc(F)c1 [Compound 9, 3,5-Difluoro-N-[4-(6-oxo-5,6,7,8,9,10-hexahydrobenzo[c][1,8]naphthyridin-1-ylamino)-phenyl]-1-benzamide]",1 to 10 nM
6,"O=C(Nc1ccc(Nc2ccnc3[nH]c(=O)c4c(c23)CCCC4)cc1)c1ccc(F)cc1 [Compound 10, 4-Fluoro-N-[4-(6-oxo-5,6,7,8,9,10-hexahydrobenzo[c][1,8]naphthyridin-1-ylamino)-phenyl]-1-benzamide]",1 to 10 nM
7,"O=C(Nc1ccc(Nc2ccnc3[nH]c(=O)c4c(c23)CCCC4)cc1)c1cccc(C(F)(F)F)c1F [Compound 11, 2-Fluoro-N-[4-(6-oxo-5,6,7,8,9,10-hexahydrobenzo[c][1,8]naphthyridin-1-ylamino)-phenyl]-3-trifluoromethyl-benzamide]",1 to 10 nM
8,"O=C(Nc1ccc(Nc2ccnc3[nH]c(=O)c4c(c23)CCCC4)cc1)c1c(Cl)cccc1Cl [Compound 13, 2,6-Dichloro-N-[4-(6-oxo-5,6,7,8,9,10-hexahydrobenzo[c][1,8]naphthyridin-1-ylamino)-phenyl]-1-benzamide]",1 to 10 nM
9,"O=C(Nc1ccc(Nc2ccnc3[nH]c(=O)c4c(c23)CCNC4)cc1)c1ccc(F)cc1 [Compound 25, 4-Fluoro-N-[4-(9-oxo-5,6,7,8,9,10-hexahydro-1,7,10-triaza-phenanthren-4-ylamino)-phenyl]-benzamide]",101 to 1000 nM
10,"O=C(Nc1ccc(Nc2ccnc3[nH]c(=O)c4c(c23)CCNC4)cc1)c1ccc(F)c(F)c1 [Compound 26, 3,4-Difluoro-N-[4-(9-oxo-5,6,7,8,9,10-hexahydro-1,7,10-triaza-phenanthren-4-ylamino)-phenyl]-benzamide]",11 to 100 nM
11,"O=C(Nc1ccc(Nc2ccnc3[nH]c(=O)c4c(c23)CCNC4)cc1)c1ccccc1 [Compound 27, N-[4-(9-oxo-5,6,7,8,9,10-hexahydro-1,7,10-triaza-phenanthren-4-ylamino)-phenyl]-benzamide]",101 to 1000 nM
12,"O=C(Nc1ccc(Nc2ccnc3[nH]c(=O)c4c(c23)CNCC4)cc1)c1ccccc1 [Compound 28, N-[4-(9-oxo-5,6,7,8,9,10-hexahydro-1,6,10-triaza-phenanthren-4-ylamino)-phenyl]-benzamide]",101 to 1000 nM
13,"O=C(Nc1ccc(Nc2ccnc3[nH]c(=O)c4c(c23)CCN(Cc2ccccc2)C4)cc1)c1ccccc1 [Compound 29, N-[4-(7-Benzyl-9-oxo-5,6,7,8,9,10-hexahydro-1,7,10-triaza-phenanthren-4-ylamino)-phenyl]-benzamide]",101 to 1000 nM
14,"O=C(Nc1ccc(Nc2ccnc3[nH]c(=O)c4n[nH]cc4c23)cc1)c1ccccc1 [Compound 33, N-(4-(4-oxo-4,5-dihydro-2H-pyrazolo[3,4-c][1,8]naphthyridin-9-ylamino)phenyl)benzamide]",11 to 100 nM
15,"O=C(Nc1ccc(Nc2ccnc3[nH]c(=O)c4n[nH]cc4c23)cc1)c1ccc(F)cc1C(F)(F)F [Compound 34, 4-fluoro-N-(4-(4-oxo-4,5-dihydro-2H-pyrazolonaphthyridin-9-ylamino)phenyl)-2-(trifluoromethyl)benzamide]",1 to 10 nM
16,"O=C(Nc1ccc(Nc2ccnc3[nH]c(=O)c4ccoc4c23)cc1)c1ccccc1 [Compound 36, N-[4-(4-oxo-4,5-dihydro-furo[3,2-c][1,8]naphthyridin-9-ylamino)-phenyl]-benzamide]",11 to 100 nM
17,"O=c1[nH]c2nccc(Nc3ccccc3)c2c2occc12 [Compound 37, 9-Phenylamino-5H-furo[3,2-c][1,8]naphthyridin-4-one]",101 to 1000 nM
18,"COc1ccc(Nc2ccnc3[nH]c(=O)c4ccoc4c23)cc1 [Compound 38, 9-(4-Methoxy-phenylamino)-5H-furo[3,2-c][1,8]naphthyridin-4-one]",101 to 1000 nM
19,"O=c1[nH]c2nccc(Nc3ccc(Cl)cc3)c2c2occc12 [Compound 39, 9-(4-Chloro-phenylamino)-5H-furo[3,2-c][1,8]naphthyridin-4-one]",101 to 1000 nM
20,"COc1cccc(Nc2ccnc3[nH]c(=O)c4ccoc4c23)c1 [Compound 40, 9-(3-Methoxy-phenylamino)-5H-furo[3,2-c][1,8]naphthyridin-4-one]",101 to 1000 nM
21,"Nc1ccc(Oc2ccnc3[nH]c(=O)c4c(c23)CCCC4)cc1 [Compound 46, 1-(4-Amino-phenoxy)-7,8,9,10-tetrahydro-5H-benzo[c][1,8]naphthyridin-6-one]",101 to 1000 nM
22,"O=C(Nc1ccc(Oc2ccnc3[nH]c(=O)c4c(c23)CCCC4)cc1)c1cccn(-c2ccc(F)cc2)c1=O [Compound 48, 1-(4-Fluoro-phenyl)-2-oxo-1,2-dihydro-pyridine-3-carboxylic acid [4-(6-oxo-5,6,7,8,9,10-hexahydro-benzo[c][1,8]naphthyridin-1-yloxy)-phenyl]-amide]",101 to 1000 nM
23,"O=C(Nc1ccc(Nc2ccnc3[nH]c(=O)c4c(c23)CCCC4)c(F)c1)c1ccc(F)cc1C(F)(F)F [Compound 52, 4-Fluoro-N-[3-fluoro-4-(6-oxo-5,6,7,8,9,10-hexahydrobenzo[c][1,8]naphthyridin-1-ylamino)-phenyl]-2-trifluoromethyl-benzamide]",1 to 10 nM
24,"O=C(Nc1ccc(Nc2ccnc3[nH]c(=O)c4c(c23)CCCC4)c(F)c1)c1cccc(F)c1 [Compound 53, 3-Fluoro-N-[3-fluoro-4-(6-oxo-5,6,7,8,9,10-hexahydrobenzo[c][1,8]naphthyridin-1-ylamino)-phenyl]-2-benzamide]",1 to 10 nM
25,"O=C(Nc1ccc(Nc2ccnc3[nH]c(=O)c4c(c23)CCCC4)cc1F)c1ccc(F)cc1C(F)(F)F [Compound 54, 4-Fluoro-N-[2-fluoro-4-(6-oxo-5,6,7,8,9,10-hexahydrobenzo[c][1,8]naphthyridin-1-ylamino)-phenyl]-2-trifluoromethyl-benzamide]",1 to 10 nM
26,"O=C(Nc1ccc(Nc2ccnc3[nH]c(=O)c4c(c23)CCCC4)c(F)c1)c1ccc(F)c(F)c1 [Compound 55, 3,4-Difluoro-N-[3-fluoro-4-(6-oxo-5,6,7,8,9,10-hexahydrobenzo[c][1,8]naphthyridin-1-ylamino)-phenyl]-1-benzamide]",1 to 10 nM
27,"O=C(Nc1ccc(Nc2ccnc3[nH]c(=O)c4c(c23)CCCC4)c(F)c1)c1cccc(F)c1F [Compound 56, 2,3-Difluoro-N-[3-fluoro-4-(6-oxo-5,6,7,8,9,10-hexahydrobenzo[c][1,8]naphthyridin-1-ylamino)-phenyl]-1-benzamide]",1 to 10 nM

# Same assay, conditions: read-out: Aurora A IC50
row,IC50,SMILES
1,11 to 100 nM,"O=C(Nc1ccc(Nc2ccnc3[nH]c(=O)c4c(c23)CCCC4)cc1)c1cc(Cl)cc(Cl)c1 [Compound 12, 3,5-Dichloro-N-[4-(6-oxo-5,6,7,8,9,10-hexahydrobenzo[c][1,8]naphthyridin-1-ylamino)-phenyl]-1-benzamide]"
2,11 to 100 nM,"O=C(Nc1ccc(Nc2ccnc3[nH]c(=O)c4c(c23)CCNC4)cc1)c1ccc(F)cc1C(F)(F)F [Compound 24, 4-Fluoro-N-[4-(9-oxo-5,6,7,8,9,10-hexahydro-1,7,10-triaza-phenanthren-4-ylamino)-phenyl]-2-trifluoromethyl-benzamide]"
3,101 to 1000 nM,"O=c1[nH]c2nccc(Cl)c2c2cn(C(c3ccccc3)(c3ccccc3)c3ccccc3)nc12 [Compound 31, 9-Chloro-2-trityl-2H-pyrazolo[3,4-c][1,8]naphthyridin-4(5H)-one]"
4,101 to 1000 nM,"O=c1[nH]c2nccc(Oc3ccc4c(c3)OCCN4)c2c2c1CCCC2 [Compound 47, 1-(3,4-Dihydro-2H-benzo[1,4]oxazin-7-yloxy)-7,8,9,10-tetrahydro-5H-benzo[c][1,8]naphthyridin-6-one]"
5,101 to 1000 nM,"O=C(c1cccn(-c2ccc(F)cc2)c1=O)N1CCOc2cc(Oc3ccnc4[nH]c(=O)c5c(c34)CCCC5)ccc21 [Compound 49, 1-{4-[1-(4-Fluoro-phenyl)-2-oxo-1,2-dihydro-pyridine-3-carbonyl]-3,4-dihydro-2H-benzo[1,4]oxazin-7-yloxy}-7,8,9,10-tetrahydro-5H-benzo[c][1,8]naphthyridin-6-one]"
6,101 to 1000 nM,"Cc1cccc(-n2nc(C(C)(C)C)cc2NC(=O)Nc2ccc(Oc3ccnc4[nH]c(=O)c5c(c34)CCCC5)cc2)c1 [Compound 51, 1-(5-tert-Butyl-2-m-tolyl-2H-pyrazol-3-yl)-3-[4-(6-oxo-5,6,7,8,9,10-hexahydro-benzo[c][1,8]naphthyridin-1-yloxy)-phenyl]-urea]"

# Source: patent US9938268B2, “C-ring modified tricyclic benzonaphthiridinone protein kinase inhibitors and use thereof” (Merck Patent GmbH, priority 2008, dated 2018)
